Test results taken from patent US9719981B2, “RAC1 inhibitors for the treatment of alport glomerular disease” (Father Flanagan's Boys' Home, priority 2012, dated 2017).
Read-outs that look alike come from different tables or passages of the source.

How the values were obtained:
[1] = system: cultured podocytes; experiment: Real time qRT-PCR for MMP transcripts in cultured podocytes, static and stretched; type: cell-based, mouse; conditions: relative to untreated cells
Description: NF-κB Staining and −/+ Stretch pFAK397 Western Blot. GEC's were differentiated under “non-permissive” conditions for ten days, plated onto Bioflex 6-well plates (Flexcell International, Hillsborough, N.C.) coated with Collagen Type 1 (rat tail, BD Biosciences, Bedford, Mass.)/Placental Laminin (Sigma), cultured for two days in 0.5% FCS and exposed to mechanical strain for 4 hours, as previously described (Meehan et al., 2009, Kidney Int; 76: 968-976). For NF-κB Staining, cells were fixed with 2% PFA, 4% Sucrose in PBS for 10 minutes, permeabilized with 0.3% Triton, as previously described (Rao et al., 2006, Am J Pathol; 169: 32-46) incubated with αNF-κB P65 antibody at 1:50 overnight at 4° C., incubated with anti-rabbit secondary antibody at 1:750 for two hours at room temperature, gaskets were cut out, mounted on slides with […]™ (Vector Laboratories, Burlingame, Calif.) and cover slipped. For −/+ Stretch pFAK Western, protein was collected in M-PER (Thermo Scientific) as above and Western Blot run as described below.
NF-κB SN50, Inhibitor Peptide Treatment, GEC's were cultured as described above, 10 μM NF-κB SN50 Inhibitor Peptide (EMD Millipore, Billerica, Mass.) was added (and after one additional hour) exposed to 20 hours of mechanical strain and RNA collected as previously described (Meehan et al., 2009, Kidney Int; 76: 968-976).
(§1) Real time qRT-PCR. Total RNA was reverse transcribed using […]® III (Invitrogen, Life Technologies, Grand Island, N.Y.) with Oligo(dT)20 Primer (Invitrogen). The real time PCR was carried out using TAQMAN® Gene Expression Master Mix (Applied Biosystems, Life Technologies, Grand Island, N.Y.), and quantified using STEPONEPLUS™ Real-Time PCR System (Applied Biosystems). Samples were normalized to Mouse GAPDH Endogenous Control VIC® Probe (Applied Biosystems catalogue #4352339E) which was run alongside MMP-9 (Catalog #4331182, ID# Mm00442991_m1), MMP-10 (Catalog #4331182, ID# Mm00444630_m1), MMP-12 (Catalog #4331182, ID# Mm00500554_m1), IL-6 (Catalog #4331182, ID# Mm00446190_m1), NFKbia (Catalog #4331182, ID# Mm00477798_m1), and FAK (Catalog #4331182, ID# Mm00433209_m1) TAQMAN® Gene Expression Assay Probes (Applied Biosystems). Samples were run in triplicate with a final reaction volume of 20 ul with the following cycling parameters: 50° C. for 2 min, 95° C. for 10 min, followed by 40 cycles of a two-step PCR consisting of 95° C. for 15 s and 60° C. for 1 min. Relative changes in gene expression were determined by calculating the fold change using the comparative CT method of 2^−ΔΔCT. Data are expressed as the mean with standard deviation for at least four independent RNA samples per data point.

[2] = system: 129 Sv/J autosomal Alport mice; type: in vivo
Description: Immunofluorescence microscopy. Fresh frozen kidneys were sectioned at 8-μm and acetone fixed. Sections were incubated overnight at 4° C. in primary antibody solution. The dual stain consisting of rat anti-mouse Laminin-α2 antibody (Sigma-Aldrich, St. Louis, Mo.) at 1:200 and rabbit anti-mouse phospho-FAK 397 antibody at 1:25 as well as the dual stain of goat anti-mouse Integrin α8 antibody (R & D Systems, Minneapolis, Minn.) at 1:1000 and rabbit anti-mouse Laminin-5 antibody, at 1:1000 were diluted in 0.3% PBST+5% FBS. Rabbit anti-mouse Fibronectin antibody at 1:300 and rat anti-mouse CD11b antibody at 1:100 were diluted in 7% Milk. Slides were rinsed with 1×PBS and incubated with the appropriate Alexa Fluor donkey secondary antibodies at 1:300 for 1 hour at room temperature. They were then rinsed again with 1×PBS and mounted with Vectashield Mounting Medium with DAPI (Vector, Burlingame, Calif.). The dual stain of mouse-anti rat Laminin α1 antibody at 1:300 and rabbit anti-mouse phospho-FAK 397 antibody at 1:25 were diluted in 0.3% PBST+5% NGS and incubated overnight at 4° C. Slides were rinsed with 1×PBS and incubated with the appropriate Alexa Fluor goat secondary antibodies at 1:300 for 1 hour at room temperature. They were then rinsed again with 1×PBS and mounted with Vectashield Mounting Medium with DAPI.
as §1
Treatment of mice with TAE226. Four Col 4A3 knockout mice from 129 Sv/J background were given 50 mg/Kg TAE226 (ChemScene, LLC Monmouth Junction, N.J.) 1× daily by gavage needle starting at two weeks of age until seven weeks old. The TAE226 was diluted in a 0.5% carboxy methyl cellulose suspension. Three control Col 4a3 knockout mice of the same age were given 0.5% CMC suspension alone and served as controls.
Albumin and creatinine assays. Urine was collected weekly and albumin concentrations were analyzed as instructed using a mouse albumin ELISA kit #MSAKT from Molecular Innovations (Novi, Mich.). Albumin levels were normalized to creatinine using QuantiChrom Creatinine Assay Kit (DICT-500) (BioAssay Systems, Hayward, Calif.) as instructed.
Transmission electron microscopy. Transmission electron microscopy was performed as described previously (Cosgrove et al., 2000, Am J Pathol; 157: 1649-1659).

[3] = system: glomerular injury; conditions: lipopolysaccharide or anti-GBM antibody administration; cited from earlier work
[4] = 50 mg/Kg daily, 2 to 7 weeks, relative to vehicle
[5] = at 6 weeks of age, relative to vehicle
[6] = by 7 weeks of age, relative to vehicle

CNC(=O)c1ccccc1Nc1nc(Nc2ccc(N3CCOCC3)cc2OC)ncc1Cl [TAE226]
MMP-10 message levels in stretched podocytes ([1]; biomechanical stretch): reduced | MMP-12 message levels in stretched podocytes ([1]; biomechanical stretch): reduced | MMP-10 expression in podocytes ([1]; static conditions): reduced expression | MMP-12 expression in podocytes ([1]; static conditions): reduced expression | pFAK immunostaining in podocytes in vivo ([2]; 50 mg/Kg 1× daily by gavage, two to seven weeks of age): abolished | Glomerular mRNA expression level of MMP-9 [2, 4]: significantly reduced | Glomerular mRNA expression level of MMP-10 [2, 4]: significantly reduced | Glomerular mRNA expression level of MMP-12 [2, 4]: significantly reduced | Monocytic infiltration (CD11b immunostaining) ([2]; 7 weeks of age): remarkably robust reduction | Renal scarring (fibronectin immunostaining) ([2]; 7 weeks of age): remarkably robust reduction | GBM architecture (transmission electron microscopy) ([2]; 7 weeks of age, relative to vehicle): markedly improved | Glomerulosclerosis ([2]; Alport mice): ameliorated | Blood urea nitrogen levels [2, 5]: significant reduction | Proteinuria [2, 5]: significant reduction | Blood urea nitrogen levels [2, 6]: loose significance | Proteinuria [2, 6]: loose significance | Mesangial process invasion of glomerular capillary loops ([2]; integrin α8 / laminin α5 immunostaining, vs vehicle): amelioration | Protection against glomerular injury [3]: protect against glomerular injury
